From paper PMC6630718, “Discovery of Novel UV-Filters with Favorable Safety Profiles in the 5-Arylideneimidazolidine-2,4-dione Derivatives Group” (Molecules, 2019)
Like-named read-outs stand apart in the source and are kept apart here.

Columns and labels:
[1] = Ultraviolet spectroscopy in methanol solutions; format: physicochemical; conditions: for Absorption Range: scan range 290–400 nm
Protocol: Spectra with a scan range of 290–400 nm were recorded in 50 or 25 μM methanol solutions, in 1 cm path length, 1.5 mL quartz cuvettes on a U-2800 double beam spectrophotometer (Hitachi, Tokyo, Japan) controlled by UV Solution version 2.2 software. The molar extinction coefficient at maximum absorption (εmax) of tested compounds was determined in methanol as the slope of the linear regression of absorbance vs. concentration of tested compound (from 10 to 50 μM or 2.5 to 30 μM).

[2] = In vitro photoprotection study of 2% (w/w) macrogol formulations on PMMA plates; conditions: for UVA PF / UVA/UVB Ratio / λc (critical wavelength): 2% (w/w) macrogol formulation F1 (Triacetin 4.8%); for SPFin vitro: 2% (w/w) macrogol formulation F1 (Tween 20, PEG-400, PEG-1500, Triacetin 4.8%)
Description: The composition of formulations and concentration of tested compounds were based on their limited solubility. N-monosubstituted compounds 2a–2e were insoluble at desirable concentrations in the typical solvents used in cosmetic formulations such as alcohols, triacetin, surfactants, and co-surfactants. To dissolve compounds 2a and 2b before incorporation to the formulation DMSO: Tween 20 (1:9 w/w) was used, for less soluble 2c–2e it was necessary to use DMSO alone as solvent. […] Thus the detailed composition of the formulations is as follows: F1–Tween 20 43.2%, PEG-400 25%, PEG-1500 25%, Triacetin 4.8%, tested compound 2%; F2–Tween 20 43.2%, PEG-400 25%, PEG-1500 25%, DMSO 4.8%, tested compound 2%; F3–PEG-400 25%, PEG-1500 25%, DMSO 48%, tested compound 2%. Considering the disadvantages of currently reported macrogol formulations and the low concentration achieved for the tested compounds (2%), we plan to work on cosmetic emulsions containing the most promising derivatives at higher concentrations as well as required excipients including preservatives, antioxidants, etc. This research will be carried out in the near future.
Tested compounds and commercial UV filters as reference standards were incorporated to a neutral macrogel formulation in the concentration of 2%. Prior to the incorporation, compounds 3a–3e and 4f–4h and reference UV-filters were dissolved in a triacetin:Tween 20 (1:9) solvent system. For compounds 2a–2e it was necessary to use DMSO. The final composition of the macrogol formulations is presented in the photoprotective activity section.
In vitro photoprotection study was performed according to EN ISO 24443:2012 [71] with slight modifications. Formulation with tested compound (32.5 mg) was applied on a polymethylmethacrylate plate (PMMA) with the application area 25 cm^2 and 5 µm roughness value to simulate the skin surface (Schonberg GmbH, Hamburg, Germany). As a reference a PMMA plate treated with approximately 15 µL of glycerin was used. Measurements were carried out by reflectance spectrophotometry with SPF-290AS Analyser (Solar Light Company, Glenside, PA, USA) equipped with integrating sphere controlled by WinSPF version X.X. software. For each sample two plates were prepared, absorbance measures were performed on 6 different positions of the plate from 290 to 400 nm with 1 nm steps. The results were expressed as an average of data from 12 scans.

[3] = Photostability in methanol solutions (solar light simulator); format: physicochemical; parameters: λmax pre-irradiation: unit not given beside the values; conditions: methanol solution; for % of initial AUC post-irradiation / λmax post-irradiation: 1h irradiation at 500 W/m2
Protocol: (§1) The photostability evaluation of compounds was performed both in methanol solutions and in macrogol formulations. Irradiation of samples according to previous studies was conducted for 1 h at 500 W/m^2 (cumulative dose of ultraviolet radiation 218 kJ/m^2) with solar light simulator (Suntest CPS+, Atlas, Linsengericht, Germany) equipped with an optical filter cutting off wavelengths shorter than 290 nm and IR-block filter to neutralize thermal effects. The UV absorption spectrum of the samples were analysed post-irradiation and compared with pre-irradiation results. UPLC-MS/MS analyses were also performed.
(§2) Methanol solutions were tested at concentration 25 or 50 µM in quartz cuvettes with the PTFE stopper to prevent evaporation or leaking of the solvent. Macrogol formulations (2% w/w) were tested on PMMA plates (1.3 mg/cm^2). After post-irradiation measure of UV absorption, exposed and unexposed plates were washed with 5 mL of methanol, then mixtures were filtered and analysed by UPLC-MS/MS. All analyses were performed in duplicates.

[4] = Photostability in macrogol formulations on PMMA plates (solar light simulator); format: physicochemical; conditions: for % of Initial AUC / % of Initial SPFin vitro / % of Initial UVA PF: after 1 h irradiation at 500 W/m^2, formulation F1; for new photoproduct (besides photoisomer), relative peak area: post-irradiation chromatogram; for decrease of AUC after irradiation: macrogol formulation F1; for percentage of photoproducts content: post-irradiation chromatograms
Protocol: After irradiation of thin layer of formulations applied on PMMA plates, their photoprotective parameters were determined and compared with the pre-irradiation results. The study gives an overview on functional photostability of the tested compounds. It is an important test, because the photostability of some compounds in low concentrated solutions may meaningfully differ from results obtained for higher concentrations used in sunscreen products. […] In the present study both UVB and UVA-absorbers were tested, so the changes in SPFin vitro, UVA PF and AUC after irradiation are taken into account as a measure of photostability.
as §1, §2

[5] = In vitro stability in mouse liver microsomes; format: in vitro ADME; conditions: mouse, mouse liver microsomes
Protocol: Mouse liver microsomes (MLMs) were used to investigate the phase I metabolism of selected compounds (2c, 2d, 3b, 4g, 5a) and the reference substance BP-2. Samples composed of test compound (20 µM), MLMs (0.8 mg/mL) and potassium phosphate buffer (100 mM, pH 7.4) were preincubated prior to addition of NADPH-regenerating system. NADPH-regenerating system contained NADP, glucose-6-phosphate, glucose-6-phosphate dehydrogenase and potassium phosphate buffer (100 mM, pH 7.4). Control incubations were performed in the absence of the NADPH-regenerating system and in case of esters (2c, 2d, 3b and 4g) without the mouse liver microsomes solution to determine spontaneous hydrolysis. Incubations were conducted at 37 °C for at least 15 min up to 60 min. The reactions were stopped by the addition of 250 μL ice-cold methanol containing internal standard PTX (20 μM). The mixture was then centrifuged. Supernatant analysis was performed using UPLC/MS (Waters Corporation). The assays were repeated two times. The in vitro half times (t1/2) for test compounds were determined from the slope of the linear regression of ln % parent compound remaining versus incubation time. The calculated t1/2 was incorporated into the following equation to obtain intrinsic clearance: (Clint) = (volume of incubation [µL]/ protein in the incubation [mg]) × 0.693 / t1/2 [74].

Row | εmax [1] [M⁻¹ cm⁻¹] | λmax [1] [nm] | Absorption Range [1] | λmax pre-irradiation [3] | % of initial AUC post-irradiation [3] [%] | λmax post-irradiation [3] | % of Initial AUC [4] [%] | % of Initial SPFin vitro [4] [%] | % of Initial UVA PF [4] [%] | melting point [°C] | SMILES | UVA PF [2] | UVA/UVB Ratio [2] | λc (critical wavelength) [2] [nm] | SPFin vitro [2] | other results
1 | 13980 | 295 | 290–335 nm | 295 | 122.34 | 301 | 88.19 | 83.31 | 103.50 | 47 to 49 | CCOC(=O)CN1C(=O)/C(=C/c2ccccc2)N(CC(=O)OCC)C1=O [Compound 3a, Diethyl 2,2′-((Z)-4-benzylidene-2,5-dioxoimidazolidine-1,3-diyl)diacetate] | 1.29 ± 0.09 | 0.16 ± 0.02 | 331 | 2.97 ± 0.45 | hypsochromic shift of λmax compared to N-monosubstituted derivatives [1]: 21 nm
2 | 17010 | 321 | 290–367 nm | 321 | 119.42 | 329 | 85.29 | 88.73 | 86.59 | 44 to 46 | CCOC(=O)CN1C(=O)/C(=C/c2ccc(OCC)cc2)N(CC(=O)OCC)C1=O [Compound 3c, Diethyl 2,2′-((Z)-4-(4-ethoxybenzylidene)-2,5-dioxoimidazolidine-1,3-diyl)diacetate] | 2.46 ± 0.01 | 1.05 ± 0.03 | 370 | 2.49 ± 0.08 | new photoproduct (besides photoisomer), relative peak area ([4]; macrogol formulation): 2.8%
3 | 17310 | 333 | 290–374 nm | 333 | 111.55 | 342 | 94.01 | 89.92 | 97.66 | 88 to 90 | CCOC(=O)CN1C(=O)/C(=C/c2ccc(OC)cc2OC)N(CC(=O)OCC)C1=O [Compound 3d, Diethyl 2,2′-((Z)-4-(2,4-dimethoxybenzylidene)-2,5-dioxoimidazolidine-1,3-diyl)diacetate] | 2.35 ± 0.03 | 1.63 ± 0.01 | 383 | 1.84 ± 0.02 | new photoproduct (besides photoisomer), relative peak area ([4]; macrogol formulation): no additional peaks besides the photoisomer
4 | 14200 | 329 | 290–380 nm | 329 | 129.32 | 340 | 79.59 | 81.28 | 87.10 | 80 to 82 | CCOC(=O)CN1C(=O)/C(=C/c2ccc(OC)c(OC)c2)N(CC(=O)OCC)C1=O [Compound 3e, Diethyl 2,2′-((Z)-4-(3,4-dimethoxybenzylidene)-2,5-dioxoimidazolidine-1,3-diyl)diacetate] | 2.17 ± 0.11 | 1.43 ± 0.02 | 382 | 1.87 ± 0.08 | –
5 | 41477 | 354 | 295–389 nm | 354 | 59.12 | 354 | 27.92 | 62.24 | 25.98 | 99 to 100 | CCOC(=O)CN1C(=O)/C(=C/C=C/c2ccccc2)N(CC(=O)OCC)C1=O [Compound 4f, Diethyl 2,2′-((Z)-2,4-dioxo-5-((E)-3-phenylallylidene)imidazolidyne-1,3-diyl)diacetate] | 8.43 ± 1.35 | 2.58 ± 0.06 | 381 | 2.51 ± 0.17 | decrease of AUC after irradiation [3]: 40.9%; photostability (in words) ([4]; macrogol formulation): unsatisfactory; decrease of AUC after irradiation [4]: 72.1%; percentage of photoproducts content ([4]; macrogol formulation): 22.9%
6 | 34987 | 370 | 290–400 nm | 370 | 98.55 | 370 | 69.19 | 82.22 | 62.38 | 134 to 135 | CCOC(=O)CN1C(=O)/C(=C/C=C/c2ccccc2OC)N(CC(=O)OCC)C1=O [Compound 4h, Diethyl 2,2′-((Z)-4-((E)-3-(2-methoxyphenyl)allylidene)-2,5-dioxoimidazolidine-1,3-diyl)diacetate] | 4.28 ± 0.02 | 2.58 ± 0.01 | 389 | 1.94 ± 0.04 | decrease of AUC after irradiation [3]: 1.5%; decrease of AUC after irradiation [4]: 30.8%; percentage of photoproducts content ([4]; macrogol formulation): 11.0%
7 | 27310 | 316 | 290–346 nm | – | – | – | – | – | – | 215 to 217 | O=C(O)CN1C(=O)N/C(=C\c2ccccc2)C1=O [Compound 5a, (Z)-2-(4-Benzylidene-2,5-dioxoimidazolidin-1-yl)acetic acid] | – | – | – | – | half-life at 20 µM ([5]; pH 7.4, mouse liver microsomes 0.8 mg/mL, 20 µM compound, NADPH-regenerating system, 37 °C, read-out: t ½): 23.1 h; microsomal CLint at 20 µM ([5]; pH 7.4, mouse liver microsomes, calculated from t1/2): < 1 µL/min/mg; half-life at 20 µM ([5]; pH 7.4, mouse liver microsomes, read-out: t1/2): > 23 h
